The values that follow are results of earlier work, collected in patent US6960354B1, “Membrane lipid compositions” (Phares Technology BV, priority 1999, dated 2005).

Each structure is given as a SMILES string.

As to `O=C(O)c1ccccc1O` [Salicylic acid], the solubility in ethanol result (ethanol) is “soluble”. Further, where the note is “water”, the solubility in water entry is listed as “only sparingly soluble”.
